Experimental data published in patent US12351804B2, “Production method for bifurcated lipid-linked oligonucleotide, and intermediate” (Shionogi & Co., Ltd., priority 2019, dated 2025).

Experiment: Stability of the amidite intermediate on storage (UPLC/HPLC analysis)
Format: physicochemical
Protocol: The following conditions were used for the analysis of compound 5.
Mobile phase [A]: 60 mM ammonia-ammonium acetate-containing buffer solution (pH 8.0), Mobile phase [B]: acetonitrile
Gradient: 15% solvent [B] was kept for 0.5 minutes, then linear gradient from 15% to 50% solvent [B] was performed in 2.5 minutes, linear gradient from 50% to 65% solvent [B] was performed in 9 minutes, linear gradient from 65% to 95% solvent [B] was performed in 3 minutes, and 95% solvent [B] was kept for 1 minute.
Column: ACQUITY UPLC (registered trademark) BEH Phenyl (1.7 μm, i.d. 2.1×100 mm) (Waters)
UV Detection wavelength: 295 nm
The following conditions were used for the analysis of comparative compound.
Mobile phase [A]: 10 mM ammonium formate-containing aqueous solution, Mobile phase [B]: methanol
Gradient: 97% solvent [B] was kept for 20 minutes.
Column: Triart (registered trademark) C8 (3 μm, i.d. 4.6×100 mm) (YMC)
Detector: Corona CAD, Corona CAD detection conditions: 60 Hz, BCD polarity+, pressure 35±1 psi, total flow rate 1.53 mL/min

| SMILES | Stability (analysis value) (−20° C., after 7 months) | Stability (analysis value) (−20° C., after 71 days) | Stability (analysis value) (−20° C., initial) | Decomposition on storage (−20° C., over time) | Decomposition on storage (40° C. for 50 days) | Stability (analysis value) (40° C., after 7 days) | Stability (analysis value) (40° C., after 50 days) | Stability (analysis value) (40° C., initial) |
| --- | --- | --- | --- | --- | --- | --- | --- | --- |
| CCCCCCCCCCCCCCCCCCCC(=O)NCC(CNC(=O)CCCCCCCCCCCCCCCCCCC)OP(OCCC#N)N(C(C)C)C(C)C (centres unmarked) [Comparative compound] | 33.8% | 42.0% | 54.3% | unstable |  |  |  |  |
| CC(C)N(C(C)C)P(OCCC#N)OC(CN1C(=O)c2ccccc2C1=O)CN1C(=O)c2ccccc2C1=O (centres unmarked) [Compound 5] |  |  |  |  | No decomposition | 99.6% | 99.7% | 99.6% |
